From patent publication US5498522A, “Methods for the use of spermidine/spermine N^1 -acetyltransferase as a prognostic indicator and/or a tumor response marker” (priority 1993, dated 1996)
“And” between values parts separate entries of the source, which are not always exact repeats. Identical values can stand only once. “Also recorded” adds a separate entry of the source.

How the values were obtained:
[1] = test system: SH-1 human melanoma xenografts; assay: antitumor response against SH-1 human melanoma xenografts in mice; assay type: in vivo; conditions: SH-1, BENSPM at 80 mg/kg
Procedure: (§1) […] where 1 represents length; w--width; and h--height. Tumor sizes were monitored 2 times/week until the median volume (V=0.4(a^2 ×b) where a is the smaller of the two perpendicular tumor diameters). As an indication of drug toxicity, animal weights were also recorded at the time of tumor volume measurement. Statistical analyses were performed on mouse tumor size and weight parameters by using the Mann-Whitney test.
(§2) Tumor growth suppression was measured by plotting the mean tumor volume versus the number of days post-inoculation with polyamine analog (growth curve analyses). Suppression is determined by comparison with the growth of untreated tumors (%T/C). More specifically,: %T/C is (treated tumor volume minus pretreatment volume) divided by (control tumor volume minus pretreatment volume)×100. Typically this is measured either when the control tumor volume reaches 1000 mm^3, or at the last day of treatment.
(§3) Tumor regression is measured as a percentage representing the average percentage of decrease in tumor volume from the largest pretreatment volume value.
(§4) Repression of regrowth is represented as regrowth delay, determined as the number of days following cessation of treatment when median group tumor volume exceeds 200 mm^3 (an arbitrary indication of regrowth which was determined statistically).
For example, human melanoma cell lines including MALME-3, SH-1, PANUT-3 and LOX were evaluated for the level of SSAT induction and potency of antitumor response following BENSPM treatment (80 mg/kg 3×/day×6 days) using the methodology previously described in this embodiment. […] The baseline of SSAT activity in the control mice (2 examined of 7 mice) ranged from 50 to 90 pmol/min/mg. […] Note that following BENSPM treatment (as discussed above in the context of Tables 4 and 5), suppression of tumor growth of PANUT-3, unlike suppression of MALME-3 growth, lasted for only about 12 days. Further, the levels of SSAT in PANUT-3 at two weeks post-treatment, approached the levels in the control and correlated with the loss of antitumor activity.

[2] = test system: A549 lung adenocarcinoma xenografts; assay: antitumor response against A549 lung adenocarcinoma xenografts in mice; assay type: in vivo, human
Procedure: as §1, §2, §3, §4
(§5) Cells from malignant solid human tumor tissue types, other than melanoma, have also been evaluated for their responsiveness to polyamine analog treatment including clonal cell lines A121 (human ovarian adenocarcinoma),A549 (lung adenocarcinoma), and HT29 colon adenocarcinoma). These cell lines were evaluated for the level of SSAT induction and potency of antitumor response following BENSPM treatment (80 mg/kg 3×/day×6 days) in-vivo using the methodology previously described in this embodiment. Also, dose of BENSPM was compared (80 mg/kg versus 40 mg/kg). The baseline of SSAT activity in the control mice (2 of 7 mice) ranged from 40 to 90 pmol/min/mg. Tumor cells from the human xenografts A121, A549, and HT29 were removed from two mice of each treated group of seven mice containing the respective xenograft at 16 hours following the final BENSPM injection to evaluate the level of induction of SSAT activity. […] The response to the polyamine analog was heterotypic. […] As discussed previously, it is not known whether the heterotypic antitumor response may be due to either the individual properties of the clonal line or the particular solid tumor type.

[3] = test system: spermidine/spermine N^1 -acetyltransferase (SSAT); assay: SSAT induction in host tissue of treated mice; assay type: in vivo, mouse; conditions: spleen (PANUT-3 mice), 80 mg/kg
[4] = test system: polyamine pools of melanoma tumor; assay: polyamine pools in human melanoma xenografts in-vivo; conditions: for polyamine pools: 16 hours after final injection
[5] = test system: A121 human ovarian adenocarcinoma xenografts; assay: antitumor response against A121 human ovarian adenocarcinoma xenografts in mice; assay type: in vivo
Procedure: as §1, §2, §3, §4, §5

LOX human melanoma cells = assay: growth of LOX melanoma cells in-vitro (FIG. 5); assay type: cell-based; conditions: 10 μM BESPM, 48 hours
Procedure: As mentioned previously, cells from malignant solid tumor respond to polyamine analog therapy heterotypically. SSAT induction and antitumor response may vary not only among the solid tumor tissue type, but also with the clonal line of tumor of a particular solid tissue type. However, a correlation between the level of induction of SSAT and the potency of antitumor response has been observed in tumors of a particular solid tissue type. For example, seven human melanoma cell lines were assayed in-vitro for their response, as determined by cell growth and level of SSAT induction, to 10 μM BESPM at 48 hours post-treatment. As summarized in FIG. 5, growth among the cell lines decreases as SSAT induction increases.

LOX melanoma cells = assay: N^1 -acetylspermidine in LOX cell cultures; assay type: cell-based, human; conditions: 10 μm BESPM, 48 hours
Procedure: (§6) To illustrate this embodiment, LOX and MALME-3 cell cultures were treated for 48 hours with 10 μm BESPM. The cells from each culture were harvested and assayed for SSAT activity. Media samples were prepared by treating the samples with 50% trichloroacetic acid to give a final concentration of 10% and then centrifuged at 15,000×g for 10 minutes. The supernatant was then filtered through a 0.22-μm filter, extracted with several volumes of ether, lyophilized, and resuspended in 10% trichloroacetic acid. N^1 -acetylspermidine levels of cells and media samples were then measured by use of high-pressure liquid chromatography. […] Similarly, N^1 -acetylspermidine levels from MALME-3 control cells, media from control cell cultures, and treated MALME-3 cells contained minimal levels of N^1 -acetylspermidine.

MALME-3 melanoma cells = assay: N^1 -acetylspermidine in MALME-3 cell cultures; assay type: cell-based, human; conditions: MALME-3, 10 μm BESPM, 48 hours
Procedure: as §6

polyamine uptake = conditions: cited from earlier work
natural polyamine pools = conditions: in-vitro; cited from earlier work
[6] = A549, BENSPM 80 mg/kg 3x/d × 6d
[7] = A549 xenograft, 80 mg/kg 3×/day×6 days
[8] = MALME-3 tumor, 40 mg/kg 3x/day 6 days, 16 hrs post-treatment
[9] = MALME-3 tumor, 40 mg/kg, 2 wks post-treatment
[10] = A121, BENSPM 80 mg/kg 3x/d × 6d

In the case of CCNCCCNCCCNCCCNCC [BENSPM, N^1,N^11 -bis(ethyl)norspermine], the “% T/C at 1 g” value [1] is reported as < 0%, the “Tumor Regression” value [1] is reported as “Present” and the “Regrowth Delay” value ([1]; dt 15 days) is reported as 2.1 × dt. The “No Regrowth” value ([1]; for duration of experiment) was 1/5, the “% T/C at 1 g” value [2, 6] was 13% and the “Tumor Regression” value [2, 6] was “no measurable tumor regression and None”. For the same molecule, the “Regrowth Delay” value ([2]; A549, BENSPM 80 mg/kg 3x/d × 6d, dt 10 days) was 8.5 × dt, the “No Regrowth” value ([2]; A549, BENSPM 80 mg/kg 3x/d × 6d, for duration of experiment) was 2/5 and the “growth suppression after cessation of treatment” value [2, 7] was 85 days. For the same molecule, the tumor regrowth [2, 7] was “minimal tumor regrowth”, the SSAT activity ([3]; 2 wks post-treatment) was 48/40 and the SSAT activity ([3]; 16 hrs post-treatment) was 163/322. For the same molecule, the PUT pool [4, 8] was 20/20, the SPD pool [4, 8] was 50/20 and the SPM pool [4, 8] was 40/30. The N-acetylspermidine level [4, 9] was 240/180, the PUT pool [4, 9] was 370/290 and the SPD pool [4, 9] was 560/160. For the same molecule, the SPM pool [4, 9] was 200/80, the polyamine pools ([4]; MALME-3 tumor) was “almost totally depleted” and the polyamine pools ([4]; PANUT-3 tumor) was “almost totally depleted”. The “% T/C at 1 g” value [5, 10] was < 0%, the “Tumor Regression” value [5, 10] was “showed tumor regression; also recorded: Present” and the “Regrowth Delay” value ([5]; A121, BENSPM 80 mg/kg 3x/d × 6d, dt 5 days) was 3.2 × dt. The “No Regrowth” value ([5]; A121, BENSPM 80 mg/kg 3x/d × 6d, for duration of experiment) was 2 of 5 and 2/5 and the “total growth suppression period” value ([5]; A121 xenograft, 80 mg/kg 3×/day×6 days) was 16 days.

In the case of CCNCCCNCCCCNCCCNCC [BESPM, N^1,N^12-bis(ethyl)spermine], the “growth inhibition (FIG. 5)” value (LOX human melanoma cells) is reported as “least growth inhibition”, the “N^1 -acetylspermidine Extracellular” value (LOX melanoma cells) is reported as < 0.1 nmol/culture and the “N^1 -acetylspermidine Intracellular” value (LOX melanoma cells) is reported as < 0.1 nmol/culture. The “N^1 -acetylspermidine Intracellular” value (MALME-3 melanoma cells) was 0.1 nmol/culture, the polyamine uptake (polyamine uptake) was “suppresses polyamine uptake” and the natural polyamine pools (natural polyamine pools) was “deplete natural polyamine pools”.
